Measurements as given in patent US20050096327A1, “Novel norepinephrine reuptake inhibitors for the treatment of central nervous system disorders” (priority 2003, published 2005).

Each compound was assayed against T1, human norepinephrine transporter (Homo sapiens, UniProt P23975) (assay: hNET receptor binding ([125I]-RTI-55, membranes of transfected HEK-293 cells)). Conditions: 50 pM [125I]-RTI-55, 90 min room temperature; IC50 converted by Cheng-Prusoff.
T1 construct: host or cells: HEK-293
Procedure: (§1) Cell pastes of HEK-293 cells transfected with the human norepinephrine transporter were supplied by the Pfizer Ann Arbor Protein Expression and Production group. Pellets were resuspended in 400 to 700 ml of Krebs-HEPES assay buffer (25 mM HEPES, 122 mM NaCl, 3 mM KCl, 1.2 mM MgSO4, 1.3 mM CaCl2, and 11 mM glucose, pH 7.4) with a Polytron homogenizer at setting 7 for 30 sec. Aliquots of membranes (5 mg/ml protein) were stored in liquid nitrogen until used.
The binding assay was set up in Beckman deep-well polypropylene plates with a total volume of 250 μl containing: drug (10^−5M to 10^−12M), cell membranes, and 50 pM [^125I]-RTI-55 (Perkin Elmer, NEX-272; specific activity 2200 Ci/mmol). The reaction was incubated by gentle agitation for 90 min at room temperature and was terminated by filtration through Whatman GF/C filter plates using a Brandel 96-well plate harvester. Scintillation fluid (100 μl) was added to each well, and bound [^125I]-RTI-55 was determined using a Wallac Trilux Beta Plate Counter. Test compounds were run in duplicate, and specific binding was defined as the difference between binding in the presence and absence of 10 μM desipramine.
Excel and GraphPad Prism software were used for data calculation and analysis. IC50 values were converted to Ki values using the Cheng-Prusoff equation. The Ki values for the hNET are reported below in Table 1.

T1 sequence (P23975 whole entry): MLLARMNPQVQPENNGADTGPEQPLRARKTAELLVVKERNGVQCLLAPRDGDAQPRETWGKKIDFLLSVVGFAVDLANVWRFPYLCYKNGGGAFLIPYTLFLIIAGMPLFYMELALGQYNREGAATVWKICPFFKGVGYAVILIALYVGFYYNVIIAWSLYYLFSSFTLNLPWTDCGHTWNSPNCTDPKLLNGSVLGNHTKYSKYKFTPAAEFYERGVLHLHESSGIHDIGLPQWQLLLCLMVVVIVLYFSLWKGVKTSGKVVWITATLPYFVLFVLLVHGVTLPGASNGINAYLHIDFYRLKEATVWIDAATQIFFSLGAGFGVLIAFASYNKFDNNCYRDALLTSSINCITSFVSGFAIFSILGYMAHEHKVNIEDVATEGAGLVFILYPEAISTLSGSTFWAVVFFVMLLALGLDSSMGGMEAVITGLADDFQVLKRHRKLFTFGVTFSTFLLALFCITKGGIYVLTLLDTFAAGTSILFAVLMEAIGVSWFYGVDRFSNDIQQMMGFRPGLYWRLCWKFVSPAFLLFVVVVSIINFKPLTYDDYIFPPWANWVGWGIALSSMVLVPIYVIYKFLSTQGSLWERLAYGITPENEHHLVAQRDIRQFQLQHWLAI

| Structure (SMILES) | Ki |
| --- | --- |
| Fc1ccc2c(-c3c(F)cccc3F)nc(N[C@H]3CCNC3)nc2c1 [Example 100, S-[4-(2,6-Difluoro-phenyl)-7-fluoro-quinazolin-2-yl]-pyrrolidin-3-yl-amine] | 29.3 nM |
| Fc1cccc(F)c1-c1nc(N[C@H]2CCNC2)nc2ccccc12 [Example 101, S-[4-(2,6-Difluoro-phenyl)-quinazolin-2-yl]-pyrrolidin-3-yl-amine] | 7.5 nM |
| N[C@@H]1CCN(c2nc(-c3cccc(F)c3F)c3ccccc3n2)C1 [Example 102, R-1-[4-(2,3-Difluoro-phenyl)-quinazolin-2-yl]-pyrrolidin-3-ylamine] | 11.4 nM |
| C[C@@H]1CNCCN1c1nc(-c2c(F)cccc2F)c2ccc(F)cc2n1 [Example 104, R-4-(2,6-Difluoro-phenyl)-7-fluoro-2-(2-methyl-piperazin-1-yl)-quinazoline] | 36.4 nM |
| C[C@@H]1CNCCN1c1nc(-c2ccccc2)c2ccc(F)cc2n1 [Example 105, R-7-Fluoro-2-(2-methyl-piperazin-1-yl)-4-phenyl-quinazoline] | 16.6 nM |
| C[C@H]1CNCCN1c1nc(-c2ccccc2)c2ccc(F)cc2n1 [Example 106, S-′7-Fluoro-2-(2-methyl-piperazin-1-yl)-4-phenyl-quinazoline] | 18.3 nM |
| C[C@H]1CNCCN1c1nc(-c2c(F)cccc2F)c2ccc(F)cc2n1 [Example 107, S-4-(2,6-Difluoro-phenyl)-7-fluoro-2-(2-methyl-piperazin-1-yl)-quinazoline] | 47.3 nM |
| Fc1ccc(-c2nc(N3CCNCC3)nc3ccccc23)cc1F [Example 108, 4-(3,4-difluoro-phenyl)-2-piperazin-1-yl-quinazoline] | 7.7 nM |
| N[C@H]1CCN(c2nc(-c3cccc(F)c3F)c3ccc(F)cc3n2)C1 [Example 109, S-1-[4-(2,3-Difluoro-phenyl)-7-fluoro-quinazolin-2-yl]-pyrrolidin-3-yl-amine] | 13.9 nM |
| N[C@@H]1CCN(c2nc(-c3cccc(F)c3F)c3ccc(F)cc3n2)C1 [Example 110, R-1-[4-(2,3-Difluoro-phenyl)-7-fluoro-quinazolin-2-yl]-pyrrolidin-3-yl-amine] | 13.6 nM |
| Fc1ccc2c(-c3cccc(F)c3F)nc(N3CCNCC3)nc2c1 [Example 111, 4-(2,3-Difluoro-phenyl)-7-fluoro-2-piperazin-1-yl-quinazoline] | 18.6 nM |
| CN1CCN(c2nc(-c3ccc(F)c(F)c3)c3ccc(F)cc3n2)CC1 [Example 112, 4-(3,4-Difluoro-phenyl)-7-fluoro-2-(4-methyl-piperazin-1-yl)-quinazoline] | 707 nM |
| Clc1cccc(-c2nc(N3CCNCC3)nc3ccccc23)c1 [Example 113, 4-(3-chloro-phenyl)-2-piperazin-1-yl-quinazoline] | 28.6 nM |
| Clc1ccc(-c2nc(N3CCNCC3)nc3ccccc23)cc1Cl [Example 115, 4-(3,4-dichloro-phenyl)-2-piperazin-1-yl-quinazoline] | 114 nM |
| Fc1ccc2c(-c3cccc(F)c3F)nc(N[C@@H]3CCNC3)nc2c1 [Example 116, R-[4-(2,3-Difluoro-phenyl)-7-fluoro-quinazolin-2-yl]-pyrrolidin-3-yl-amine] | 138 nM |
| Cc1cc(F)ccc1-c1nc(N2CCNCC2)nc2cc(F)ccc12 [Example 117, 7-Fluoro-4-(4-fluoro-2-methyl-phenyl)-2-piperazin-1-yl-quinazoline] | 32.9 nM |

Each compound was assayed against T2, human serotonin transporter (Homo sapiens, UniProt P31645) (assay: hSERT receptor binding ([125I]-RTI-55, membranes of transfected HEK-293 cells)). Conditions: 50 pM [125I]-RTI-55, 90 min room temperature; IC50 converted by Cheng-Prusoff.
T2 construct: host or cells: HEK-293
Procedure: as §1, with “serotonin” for “norepinephrine”, “Group.” for “group.”, “mL” for “ml”, “Setting” for “setting”, “seconds.” for “sec.”, “(˜2.5 mg/mL” for “(5 mg/ml”
Assays were set up in FlashPlates pre-coated with 0.1% PEI in a total volume of 250 μL containing: drug (10^−5M to 10^−12M), cell membranes, and 50 pM [^125I]-RTI-55 (Perkin Elmer, NEX-272; specific activity 2200 Ci/mmol). The reaction was incubated and gently agitated for 90 minutes at room temperature, and terminated by removal of assay volume. Plates were covered, and bound [^125I]-RTI-55 was determined using a Wallac Trilux Beta Plate Counter. Test compounds were run in duplicate, and specific binding was defined as the difference between binding in the presence and absence of 10 μM citalopram.
Excel and GraphPad Prism software were used for data calculation and analysis. IC50 values were converted to Ki values using the Cheng-Prusoff equation. The Ki values for the hSERT are reported below in Table 1.

T2 sequence (P31645 whole entry): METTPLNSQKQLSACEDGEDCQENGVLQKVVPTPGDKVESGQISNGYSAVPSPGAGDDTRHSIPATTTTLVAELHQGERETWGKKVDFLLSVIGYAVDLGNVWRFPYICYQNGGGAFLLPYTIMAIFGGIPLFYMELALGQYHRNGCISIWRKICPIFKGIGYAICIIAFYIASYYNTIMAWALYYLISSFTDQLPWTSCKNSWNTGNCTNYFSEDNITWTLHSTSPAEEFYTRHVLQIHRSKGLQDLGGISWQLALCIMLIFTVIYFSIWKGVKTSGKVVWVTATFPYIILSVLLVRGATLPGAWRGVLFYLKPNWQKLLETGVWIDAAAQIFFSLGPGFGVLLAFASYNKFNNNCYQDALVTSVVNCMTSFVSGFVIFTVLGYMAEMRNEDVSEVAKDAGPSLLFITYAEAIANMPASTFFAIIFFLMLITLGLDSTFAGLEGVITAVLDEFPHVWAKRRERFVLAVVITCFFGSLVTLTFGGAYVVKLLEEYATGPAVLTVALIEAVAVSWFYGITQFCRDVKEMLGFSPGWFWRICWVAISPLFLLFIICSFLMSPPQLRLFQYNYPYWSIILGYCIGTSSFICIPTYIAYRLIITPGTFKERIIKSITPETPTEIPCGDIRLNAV

| Structure (SMILES) | Ki |
| --- | --- |
| Fc1ccc2c(-c3c(F)cccc3F)nc(N[C@H]3CCNC3)nc2c1 [Example 100, S-[4-(2,6-Difluoro-phenyl)-7-fluoro-quinazolin-2-yl]-pyrrolidin-3-yl-amine] | 649 nM |
| Fc1cccc(F)c1-c1nc(N[C@H]2CCNC2)nc2ccccc12 [Example 101, S-[4-(2,6-Difluoro-phenyl)-quinazolin-2-yl]-pyrrolidin-3-yl-amine] | 4870 nM |
| N[C@@H]1CCN(c2nc(-c3cccc(F)c3F)c3ccccc3n2)C1 [Example 102, R-1-[4-(2,3-Difluoro-phenyl)-quinazolin-2-yl]-pyrrolidin-3-ylamine] | 155 nM |
| CN1CCN(c2nc(-c3ccc(F)c(F)c3)c3ccccc3n2)CC1 [Example 103, 4-(3,4-Difluoro-phenyl)-2-(4-methyl-piperazin-1-yl)-quinazoline] | 645 nM |
| C[C@@H]1CNCCN1c1nc(-c2c(F)cccc2F)c2ccc(F)cc2n1 [Example 104, R-4-(2,6-Difluoro-phenyl)-7-fluoro-2-(2-methyl-piperazin-1-yl)-quinazoline] | 27.6 nM |
| C[C@@H]1CNCCN1c1nc(-c2ccccc2)c2ccc(F)cc2n1 [Example 105, R-7-Fluoro-2-(2-methyl-piperazin-1-yl)-4-phenyl-quinazoline] | 65 nM |
| C[C@H]1CNCCN1c1nc(-c2ccccc2)c2ccc(F)cc2n1 [Example 106, S-′7-Fluoro-2-(2-methyl-piperazin-1-yl)-4-phenyl-quinazoline] | 49.7 nM |
| C[C@H]1CNCCN1c1nc(-c2c(F)cccc2F)c2ccc(F)cc2n1 [Example 107, S-4-(2,6-Difluoro-phenyl)-7-fluoro-2-(2-methyl-piperazin-1-yl)-quinazoline] | 30.8 nM |
| Fc1ccc(-c2nc(N3CCNCC3)nc3ccccc23)cc1F [Example 108, 4-(3,4-difluoro-phenyl)-2-piperazin-1-yl-quinazoline] | 77.7 nM |
| N[C@H]1CCN(c2nc(-c3cccc(F)c3F)c3ccc(F)cc3n2)C1 [Example 109, S-1-[4-(2,3-Difluoro-phenyl)-7-fluoro-quinazolin-2-yl]-pyrrolidin-3-yl-amine] | 30.4 nM |
| N[C@@H]1CCN(c2nc(-c3cccc(F)c3F)c3ccc(F)cc3n2)C1 [Example 110, R-1-[4-(2,3-Difluoro-phenyl)-7-fluoro-quinazolin-2-yl]-pyrrolidin-3-yl-amine] | 57.1 nM |
| Fc1ccc2c(-c3cccc(F)c3F)nc(N3CCNCC3)nc2c1 [Example 111, 4-(2,3-Difluoro-phenyl)-7-fluoro-2-piperazin-1-yl-quinazoline] | 37.1 nM |
| CN1CCN(c2nc(-c3ccc(F)c(F)c3)c3ccc(F)cc3n2)CC1 [Example 112, 4-(3,4-Difluoro-phenyl)-7-fluoro-2-(4-methyl-piperazin-1-yl)-quinazoline] | 204 nM |
| Clc1cccc(-c2nc(N3CCNCC3)nc3ccccc23)c1 [Example 113, 4-(3-chloro-phenyl)-2-piperazin-1-yl-quinazoline] | 119 nM |
| CN1CCN(c2nc(-c3ccc(F)c(F)c3)c3ccccc3n2)CC1 [Example 114, 4-(3,4-Difluoro-phenyl)-2-(4-methyl-piperazin-1-yl)-quinazoline] | 1090 nM |
| Clc1ccc(-c2nc(N3CCNCC3)nc3ccccc23)cc1Cl [Example 115, 4-(3,4-dichloro-phenyl)-2-piperazin-1-yl-quinazoline] | 332 nM |
| Fc1ccc2c(-c3cccc(F)c3F)nc(N[C@@H]3CCNC3)nc2c1 [Example 116, R-[4-(2,3-Difluoro-phenyl)-7-fluoro-quinazolin-2-yl]-pyrrolidin-3-yl-amine] | 963 nM |
| Cc1cc(F)ccc1-c1nc(N2CCNCC2)nc2cc(F)ccc12 [Example 117, 7-Fluoro-4-(4-fluoro-2-methyl-phenyl)-2-piperazin-1-yl-quinazoline] | 114 nM |
